Series [1] has as its target T1, hCB2 cannabinoid receptor (Homo sapiens, UniProt P34972).
T1 construct: purchased PerkinElmer (Belgium)
Nature of the series: Competition binding assay, hCB2 membranes, [3H]-CP-55,940. The protocol: hCB1 and hCB2 membranes were purchased from PerkinElmer (Belgium). […] Glass fiber filters were purchased from Whatman (Maidstone, U.K.), while Aqualuma was from PerkinElmer (Schaesberg, The Netherlands). Stock solutions of the compounds were prepared in DMSO and further diluted […] with the binding buffer to the desired concentration. Final DMSO concentrations in the assay were less than 0.1%.
The test compounds were present at varying concentrations and the non-specific binding was determined in the presence of 10 μM HU-210. After 1 h the incubation was stopped and the solutions were rapidly filtered through 0.5% PEI pretreated GF/B glass fiber filters on a M-48T Brandell cell harvester and washed twice with 5 mL ice-cold binding buffer without serum albumin. […] Assays were performed at least in triplicate.
(§1) IC50 and EC50 values were determined by non-linear regression analysis performed using the GraphPad prism 4.0 program (GraphPad Software, San Diego). The Ki values (expressed as pKi) were calculated based on the Cheng-Prusoff equation: Ki=IC50/(1+L/Kd). Statistical signification of [^35S]-GTPγS assay results was assessed using an one-way ANOVA followed by a Dunett post-test.

The target in a further series is T2, hCB2 receptor (Homo sapiens, UniProt P34972).
T2 construct: purchased PerkinElmer (Belgium)
T2 sequence (P34972 whole entry): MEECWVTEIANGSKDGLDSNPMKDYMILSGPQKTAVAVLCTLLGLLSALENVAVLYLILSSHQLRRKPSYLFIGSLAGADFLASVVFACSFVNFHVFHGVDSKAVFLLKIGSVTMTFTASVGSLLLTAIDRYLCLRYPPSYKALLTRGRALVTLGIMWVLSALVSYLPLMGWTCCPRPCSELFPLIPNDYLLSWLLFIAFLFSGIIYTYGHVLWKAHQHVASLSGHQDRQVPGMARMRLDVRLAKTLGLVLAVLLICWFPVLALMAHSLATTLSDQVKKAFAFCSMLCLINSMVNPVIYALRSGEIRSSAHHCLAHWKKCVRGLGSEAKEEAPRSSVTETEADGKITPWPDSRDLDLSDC
Nature of the series: [35S]-GTPγS binding assay (CB2 functional activity assay). In kind it is biochemical. The protocol:
The Emax value is determined by a CB2 functional activity assay (19, 20).
[^35S]-GTPγS binding Assays
[^35S]-GTPγS (1173 Ci/mmol) was purchased from Amersham (Roosendaal, The Netherlands). The binding experiments were performed at 30° C. in plastic tubes containing 40 μg protein in 0.5 mL (final volume) of binding buffer (50 mM Tris-HCl, 3 mM MgCl2, 1 mM EDTA, 100 mM NaCl, 0.1% bovine serum albumin, pH 7.4) supplemented with 20 μM GDP.
The assay was initiated by the addition of [^35S]-GTPγS (0.05 nM, final concentration). The tubes were incubated for 1 h. The incubations were terminated by the addition of 5 mL ice-cold washing buffer (50 mM Tris-HCl, 3 mM MgCl2, 1 mM EDTA, 100 mM NaCl). The suspension was immediately filtered through GF/B filters using a 48-well Brandell cell harvester and washed twice with the same ice-cold buffer. The radioactivity on the filters was counted as mentioned above. Assays were performed in triplicate.
as §1
For orientation: GTPγS resists hydrolysis and so accumulates on activated G proteins.

Another series relates to TNBS-induced colitis. Description: TNBS-induced colitis in mice. Particulars: for colitis macroscopic score (Wallace criteria, scale 0 to 10): intraperitoneally once daily from 3 days before TNBS, killed 3 days after TNBS, TNBS only 3.1±0.3; for histological score (Ameho criteria, scale 0 to 6): intraperitoneally once daily, TNBS only 3.7±1. The series is classed as in vivo, C57B16 mice.

[2] abbreviates: hCB2 membranes, [3H]-CP-55,940 (1 nM), 30° C., 1 h, read-out: Ki CB2.
Setting [3] is: read-out: binding affinity (Ki) at the CB2 receptor.

Read-outs that look alike come from different tables or passages of the source.

T1 sequence (P34972 whole entry): as above

Take `CCn1cc(C(=O)NC(C)C23CC4CC(CC(C4)C2)C3)c(=O)cc1-c1ccccc1` [Compound 5, (R,S)—N-3-(1-(1-Adamantyl)ethyl)-1-ethyl-4-oxo-6-phenyl-1,4-dihydropyridine-3-carboxamide]: the melting point (as a rule, the temperature, or range, at which the solid turns liquid) was 224 °C. Moreover, in series [1] (setting [2]), the Ki (usually a measure of affinity in units of concentration, obtained from inhibition or displacement) turned out to be 414 ± 61 nM. Moreover, the Ki in series [1] (setting [3]) was under 500 nM.
In turn, `CC(NC(=O)c1cn(-c2ccccc2)c(-c2ccccc2)cc1=O)C12CC3CC(CC(C3)C1)C2` [Compound 7, (R,S)—N-3-(1-(1-Adamantyl)ethyl)-1,6-diphenyl-4-oxo-1,4-dihydropyridine-3-carboxamide] displayed a melting point of over 250 °C. Further, the Ki in series [1] (setting [3]) is over 500 nM.
The compound `CCCCCn1cc(C(=O)NCC23CC4CC(CC(C4)C2)C3)c(=O)cc1-c1ccccc1` [Compound 8, N3-((1-Adamantyl)methyl)-4-oxo-1-pentyl-6-phenyl-1,4-dihydropyridine-3-carboxamide] showed a melting point of 154 °C. Also, in series [1] (setting [2]), the Ki worked out at 23.3 ± 1.9 nM.
As for `CCCCn1cc(C(=O)NC23CC4CC(CC(C4)C2)C3)c(=O)cc1-c1ccccc1` [Compound 10, N3-(1-Adamantyl)-1-butyl-4-oxo-6-phenyl-1,4-dihydropyridine-3-carboxamide], the melting point worked out at 146 °C. In addition, in series [1] (setting [2]), the Ki was found to be 18.4 ± 1.3 nM.
For `CCCCCn1cc(C(=O)NC23CC4CC(CC(C4)C2)C3)c(=O)cc1-c1ccccc1` [Compound 11, N3-(1-Adamantyl)-4-oxo-1-pentyl-6-phenyl-1,4-dihydropyridine-3-carboxamide], in that order: 145 °C and 4 ± 0.4 nM.
Regarding `CCCCCCn1cc(C(=O)NC23CC4CC(CC(C4)C2)C3)c(=O)cc1-c1ccccc1` [Compound 12, N3-(1-Adamantyl)-1-hexyl-4-oxo-6-phenyl-1,4-dihydropyridine-3-carboxamide], the melting point was determined as 167 °C. Further, the Ki in series [1] (setting [2]) is 13.5 ± 0.9 nM.
`CCCCCn1cc(C(=O)NC23CC4CC(CC(C4)C2)C3)c(=O)cc1-c1ccc(Cl)cc1` [Compound 18, N3-(1-Adamantyl)-6-(4-chlorophenyl)-1-pentyl-4-oxo-1,4-dihydropyridine-3-carboxamide]: the melting point stood at 190 °C. Moreover, the Ki in series [1] (setting [2]) turned out to be 79 ± 7 nM.
As to `CCCCCn1cc(C(=O)NC23CC4CC(CC(C4)C2)C3)c(=O)cc1C(C)(C)C` [Compound 20, N3-(1-Adamantyl)-6-tert-butyl-1-pentyl-4-oxo-1,4-dihydropyridine-3-carboxamide], the Ki in series [1] (setting [2]) worked out at 29 ± 3 nM. The “functional character at the CB2 receptor (agonist / inverse agonist)” value on hCB2 receptor (CB2 functional activity assay) was “agonists”. For the same compound, the Emax – broadly, the maximal effect, on the per cent scale that the assay sets – at hCB2 receptor (CB2 functional activity assay, basal = 100%, read-out: Emax, bound stated) is over 135%. The midpoint of the response on hCB2 receptor ([35S]-GTPγS binding, hCB2), the EC50, lay at 12.2 ± 2.5 nM. Further, the Emax at hCB2 receptor (percentage of stimulation of [35S]-GTPγS binding, basal value set at 100%, read-out: Functional activity at CB2 EMax) was 212 ± 3%. In the series on TNBS-induced colitis (TNBS only 20±5), the “MPO activity in colon (neutrophils content)” value is 10±3. Also, the “TNF-alpha mRNA expression in colon” value in the series with TNBS-induced colitis (TNBS only 26±8) was found to be 6±1. In the series with TNBS-induced colitis (TNBS only 1610±1041), the “IL-1beta mRNA expression in colon” value was 22±11. Besides, in the series on TNBS-induced colitis, the “colitis macroscopic score (Wallace criteria, scale 0 to 10)” value was determined as 0.8±0.4 and the “histological score (Ameho criteria, scale 0 to 6)” value worked out at 1.8±0.6. In addition, in the series with TNBS-induced colitis (vs TNBS only), the “decrease in colitis macroscopic scores” value came out at 74%, the “decrease of IL-1beta level in colon” value was 99%, the “decrease of MPO activity” value was 50% and the “decrease of TNF-alpha level in colon” value turned out to be 79%. Besides, the “inhibition of colitis microscopic score” value in the series on TNBS-induced colitis (vs TNBS only) is reported as 51%.
Turning to `CCCCCn1cc(C(=O)NC2CCCCC2)c(=O)cc1C(C)(C)C` [Compound 21, N3-(Cyclohexyl)-6-tert-butyl-1-pentyl-4-oxo-1,4-dihydropyridine-3-carboxamide], the melting point is 91 °C. The Ki in series [1] (setting [2]) worked out at 29 ± 3 nM.
In the case of `CCCCCn1cc(C(=O)NC23CC4CC(CC(C4)C2)C3)c(=O)c(I)c1C` [Compound 52, N3-(1-Adamantyl)-5-iodo-6-methyl-4-oxo-1-pentyl-1,4-dihydropyridine-3-carboxamide], the Ki in series [1] (setting [2]) was 9 ± 1.6 nM; in series [1] (setting [3]) it was under 500 nM.
For the compound JWH-133 [reference compound], in the series with TNBS-induced colitis, the “colitis macroscopic score (Wallace criteria, scale 0 to 10)” value was 2.1±0.6 and the “histological score (Ameho criteria, scale 0 to 6)” value is “induced a decrease of histological scores”. Besides, the “decrease in colitis macroscopic scores” value with TNBS-induced colitis (vs TNBS only) is listed as 34%.

These data come from patent US20120149735A1, “1,4-Dihydropyridine Derivatives and Their Uses” (CENTRE HOSPITALIER REGIONAL UNIVERSITAIRE DE LILLE, priority 2009, published 2012).
